Reference: US9605023B2, “Application of SP peptide or derivative thereof in preparing medicines for preventing or treating asthma” (priority 2012, dated 2017)
Where no end group is shown, it is not given here.

Assays:
[1] = tested on: IL-13; test: IL-13 level (ELISA) in serum and lung tissue homogenates of allergic asthma mice induced by ovalbumin and aluminium hydroxide; assay type: in vivo, mouse; conditions: for IL-13 level in serums / IL-13 level in lung tissue homogenates: compared to model group
Method: (§1) ICR mice, half male and half female, are divided randomly into 9 groups with each group having 10 mice, that is:
(§2) 3) positive medicines group (administer an equal volume of dexamethasone injection solution with the model group, having the dosage of 0.9 μg/kg·d);
(§3) 4) SP peptide high-dosage preventive administration group, 5) SP peptide medium-dosage preventive administration group, and 6) SP peptide low-dosage preventive administration group (administer ovalbumin and aluminium hydroxide, and the SP peptides with a respective dosage of 250 μg/kg·d, 125 μg/kg·d and 62.5 μg/kg·d prepared into an SP peptide solution of a desired concentration with physiological saline).
(§4) 7) SP peptide high-dosage treatment administrative group, 8) SP peptide medium-dosage treatment administration group, and 9) SP peptide low-dosage treatment administration group (administer ovalbumin and aluminium hydroxide, and the SP peptides with a respective dosage of 250 μg/kg·d, 125 μg/kg·d and 62.5 μg/kg·d prepared into an SP peptide solution of a desired concentration with physiological saline).
(§5) All dosage groups of the SP peptide are administered by subcutaneous injection with a 0.1 ml SP peptide solution per 10 g weight of a mouse, the blank control group uses the same amount of physiological saline (0.1 ml physiological saline per 10 g weight of a mouse), and the positive medicines group is administered by intraperitoneal injection with 0.1 ml positive medicines per 10 g weight of a mouse.
(§6) Preparation of sensitized liquid: prepare in a proportion of dissolving 10 ug ovalbumin and 2 mg aluminium hydroxide in 0.5 ml physiological saline, and use it right after being prepared.
(§7) On day 1, day 7 and day 14, the mice of all groups (the model group, the preventive administration groups, the treatment administration groups, and the positive medicines group) apart from the blank control group are injected intraperitoneally with 0.5 ml freshly prepared sensitized liquid. The blank control group is injected intraperitoneally with an equal volume of physiological saline.
(§8) Since day 21 (i.e., starting from week 4), the mice of all groups apart from the blank control group are placed in a 16 L closed container every fourth days, make the mice inhale 1 wt % ovalbumin physiological saline by ultrasonic nebulization, with an inhalation duration of 25 min/d and a nebulization flow rate of 3 ml/min, for twice a week to induce asthma, and the process continues until week 19. The mice in the blank control group undergo nebulization […] with an equal volume of physiological saline.
(§9) Particularly, the preventive administration group (the SP peptide high-dosage preventive administration group, SP peptide medium-dosage preventive administration group, and SP peptide low-dosage preventive administration group) are injected subcutaneously a corresponding dosage of SP peptide at right hindlimb of the mouse, one hour after the first intraperitoneal injection of the sensitized liquid (i.e., from day 1), and are administered every other day for 15 times in total.
(§10) From the same day, the mice in the treatment administration groups (SP high-dosage treatment administration group, SP medium-dosage treatment administration group, and SP low-dosage treatment administration group) are injected subcutaneously with a corresponding dosage of SP peptide at right hindlimb thereof, and are administered every other day for 15 times in total. From the same day, the mice in the positive medicines group are injected intraperitoneally with 0.1 ml dexamethasone injection per 10 g weight of a mouse, and are administered every other day for 15 times in total.
(§11) As for the determination of the experimental result, all mice are killed to obtain blood by picking off their eyeballs 6 hours after the final nebulization inhalation (week 19), and serum is collected and stored at −70° C. until needed. […]

[2] = tested on: r-IFN, IL-4 and IL-10; conditions: disclosed in CN1194986C and CN1216075C; cited from earlier work
[3] = tested on: IL-4; test: IL-4 level (ELISA) in serum and lung tissue homogenates of allergic asthma mice induced by ovalbumin and aluminium hydroxide; assay type: in vivo, mouse
Method: as §1, §2, §3, §4, §5, §6, §7, §8, §9, §10, §11

[4] = tested on: allergic asthma mouse model; test: Histopathologic examination and lesion score of lung tissues of allergic asthma mice induced by ovalbumin and aluminium hydroxide; assay type: in vivo
Method: as §1, §2, §5, §6, §7, §8, §9, §10
Lung tissue lesions (including bronchia and perivascular interstitial edema, alveolar wall congestion or emphysema) are marked respectively as 1, 2, 3 and 4 in ascending order of severity, 0 stands for no obvious lesions, and 0.5 for extreme mild lesions. All scores are accumulated, and a mean score (±SD) of each mouse in each group is calculated, and a higher score indicates a more severe level of lesions. Perform a rank-sum test to pathological score results to compare the two samples, and compare with the model group.
2.2 Data Processing: perform data processing to all data, rank-sum test to pathological score, t-test to the other data, and make statistics to analytic results.

[5] = tested on: IL-13; test: IL-13 level (ELISA) in serum and lung tissue homogenates of allergic asthma mice induced by ovalbumin and aluminium hydroxide; assay type: in vivo, mouse; conditions: compared to model group
[6] = tested on: TNF-α; conditions: pneumonia; recorded in CN101822816A; cited from earlier work
[7] = all SP peptide high-/medium-/low-dosage preventive and treatment administration groups, compared to the model group (summary statement)
[8] = SP peptide high-dosage preventive administration group, 250 μg/kg·d s.c., FIG. 9
[9] = SP peptide high-dosage treatment administration group, 250 μg/kg·d s.c., FIG. 12
[10] = SP peptide low-dosage preventive administration group, 62.5 μg/kg·d s.c., FIG. 7
[11] = SP peptide low-dosage treatment administration group, 62.5 μg/kg·d s.c., FIG. 10
[12] = SP peptide medium-dosage preventive administration group, 125 μg/kg·d s.c., FIG. 8
[13] = SP peptide medium-dosage treatment administration group, 125 μg/kg·d s.c., FIG. 11
[14] = positive drug group, dexamethasone 0.9 μg/kg·d i.p. every other day x15 from week 15, FIG. 6

Molecule: GQTYTSG
- IL-13 level in serums ([1]; SP peptide high-dosage preventive administration group, 250 μg/kg·d s.c. every other day x15 from day 1): significantly decreased
- IL-13 level in lung tissue homogenates ([1]; SP peptide high-dosage preventive administration group, 250 μg/kg·d s.c.): significantly decreased
- IL-13 level in lung tissue homogenates ([1]; SP peptide high-dosage treatment administration group, 250 μg/kg·d s.c.): significantly decreased
- IL-13 level in lung tissue homogenates ([1]; SP peptide low-dosage treatment administration group, 62.5 μg/kg·d s.c.): significantly decreased
- IL-13 level in serums ([1]; SP peptide medium-dosage preventive administration group, 125 μg/kg·d s.c. every other day x15 from day 1): significantly decreased
- IL-13 level in lung tissue homogenates ([1]; SP peptide medium-dosage preventive administration group, 125 μg/kg·d s.c.): significantly decreased
- IL-13 level in lung tissue homogenates ([1]; SP peptide medium-dosage treatment administration group, 125 μg/kg·d s.c.): significantly decreased
- IL-13 level [1, 7]: significantly reduced
- level of cytokines r-IFN, IL-4 and IL-10 [2]: increased level
- IL-4 level ([3]; SP peptide high-dosage preventive administration group, 250 μg/kg·d s.c., compared to model group): significantly decreased
- IL-4 level ([3]; SP peptide high-dosage treatment administration group, 250 μg/kg·d s.c., compared to model group): significantly decreased
- IL-4 level ([3]; SP peptide low-dosage treatment administration group, 62.5 μg/kg·d s.c., compared to model group): significantly decreased
- IL-4 level ([3]; SP peptide medium-dosage preventive administration group, 125 μg/kg·d s.c., compared to model group): significantly decreased
- IL-4 level ([3]; SP peptide medium-dosage treatment administration group, 125 μg/kg·d s.c., compared to model group): significantly decreased
- IL-4 level [3, 7]: significantly reduced
- overall score of lung tissue lesion level, difference compared to the model group (rank-sum test) ([4]; SP peptide high-dosage preventive administration group, 250 μg/kg·d s.c., ** P<0.01, FIG. 3): highly significant differences
- inflammatory cells infiltration (lung tissue section) [4, 8]: infiltration with a few inflammatory cells around bronchus
- pulmonary interstitial edema (lung tissue section) [4, 8]: mild pulmonary interstitial edema
- overall score of lung tissue lesion level, difference compared to the model group (rank-sum test) ([4]; SP peptide high-dosage treatment administration group, 250 μg/kg·d s.c., ** P<0.01, FIG. 3): highly significant differences
- inflammatory cells infiltration (lung tissue section) [4, 9]: infiltration with a few inflammatory cells
- pulmonary interstitial edema (lung tissue section) [4, 9]: mild pulmonary interstitial edema
- overall score of lung tissue lesion level, difference compared to the model group (rank-sum test) ([4]; SP peptide low-dosage preventive administration group, 62.5 μg/kg·d s.c., * P<0.05, FIG. 3): significant differences
- inflammatory cells infiltration (lung tissue section) [4, 10]: infiltration with greater inflammatory cells
- pulmonary interstitial edema (lung tissue section) [4, 10]: moderate or severe pulmonary interstitial edema
- overall score of lung tissue lesion level, difference compared to the model group (rank-sum test) ([4]; SP peptide low-dosage treatment administration group, 62.5 μg/kg·d s.c., * P<0.05, FIG. 3): significant differences
- inflammatory cells infiltration (lung tissue section) [4, 11]: infiltration with greater inflammatory cells
- pulmonary interstitial edema (lung tissue section) [4, 11]: moderate intrapulmonary small perivascular and peribronchial pulmonary interstitial edema
- overall score of lung tissue lesion level, difference compared to the model group (rank-sum test) ([4]; SP peptide medium-dosage preventive administration group, 125 μg/kg·d s.c., * P<0.05, FIG. 3): significant differences
- inflammatory cells infiltration (lung tissue section) [4, 12]: infiltration with a few inflammatory cells
- pulmonary interstitial edema (lung tissue section) [4, 12]: moderate or mild pulmonary interstitial edema
- overall score of lung tissue lesion level, difference compared to the model group (rank-sum test) ([4]; SP peptide medium-dosage treatment administration group, 125 μg/kg·d s.c., ** P<0.01, FIG. 3): highly significant differences
- alveolar wall congestion or emphysema (lung tissue section) [4, 13]: congestion around alveolar walls, alveoli are in an emphysematous state
- inflammatory cells infiltration (lung tissue section) [4, 13]: infiltration with many inflammatory cells
- pulmonary interstitial edema (lung tissue section) [4, 13]: mild intrapulmonary small perivascular and peribronchial pulmonary interstitial edema
- bronchia and perivascular interstitial edema, edematous inflammatory cells infiltration, alveolar wall congestion or emphysema ([4]; after administering SP peptide for prevention or treatment, histopathologic test, FIG. 3): significantly reduced
- lung tissue lesion level [4, 7]: significantly alleviated
- asthma modelling by pathological check on day 1 of week 15 ([4]; five mice drawn from each group, preventive administration groups (SP peptide 250, 125, 62.5 μg/kg·d s.c. from day 1, x15)): all asthma groups apart from the preventive administration groups are successfully modeled
- IL-13 level in serums ([5]; SP peptide high-dosage treatment administration group, 250 μg/kg·d s.c. every other day x15 from week 15): significantly decreased
- IL-13 level in serums ([5]; SP peptide low-dosage treatment administration group, 62.5 μg/kg·d s.c. every other day x15 from week 15): significantly decreased
- IL-13 level in serums ([5]; SP peptide medium-dosage treatment administration group, 125 μg/kg·d s.c. every other day x15 from week 15): significantly decreased
- TNF-α level [6]: reducing TNF-α level

Molecule: C[C@@H]1C[C@H]2[C@@H]3CCC4=CC(=O)C=C[C@]4(C)[C@@]3(F)[C@@H](O)C[C@]2(C)[C@@]1(O)C(=O)CO [positive drug, dexamethasone, reference compound]
- inflammatory cells infiltration (lung tissue section) [4, 14]: infiltration with a few inflammatory cells
- pulmonary interstitial edema (lung tissue section) [4, 14]: mild pulmonary interstitial edema
